What was measured:
Zebrafish juveniles = experiment: In vivo labelling of Zebrafish juveniles with probe for biological specimen; design: key to Staining property: +++: stained; −: no stained; key to Fluorescence sensitivity: +++: strongly observed; ++: moderately observed; +: weakly observed; −: no stained; conditions: 1 hour; for Fluorescence sensitivity / Staining property: 10 ng/mL; for Fluorescence sensitivity: fluorescence intensity visually evaluated; for Staining property: visually evaluated; for Site(s) to be labelled: 10 ng/mL in water, stereoscopic microscope
Procedure: Five juveniles of Zebrafish were put into one well of a well plate together with rearing water. After rearing water had been discharged, 1 mL of distilled water was added to the well, and a solution of a staining compound (1) in DMSO was further added thereto so as to achieve a concentration of 10 ng/mL, followed by gentle stirring (pipetting). Further, Egg Water was prepared by dissolving artificial seawater SEALIFE (manufactured by Marinetech Co., Ltd.) in distilled water at a concentration of 60 mg/L. After the whole had been left to stand for 1 hour, distilled water in the well was discharged and replaced by 1 mL of fresh Egg Water. In addition, such an operation that Egg Water was discharged and replaced by 1 mL of fresh Egg Water was repeated twice. One of the juveniles was taken out from the well onto a dish, supplemented with 100 μL of a 3% methylcellulose aqueous solution to fix the movement of the juvenile, and photographed with a stereoscopic microscope (MZ10F: manufactured by Leica Microsystems K.K.).
The same operation as that in Example 1 was performed except that the staining compound (1) used in Example 1 was changed to any one of the staining compounds described in Table 1.
The same operation as that in Example 1 was performed except that the staining compound (1) used in Example 1 was changed to any one of indocyanine green (ICG) and fluorescein.
The staining property of each of the staining compounds of Labelled Examples 1 to 78 and Labelled Comparative Examples 1 and 2 was visually evaluated (+++: stained and −: no stained).
The fluorescence intensity of each of the staining compounds of Labelled Examples 1 to 78 and Labelled Comparative Examples 1 and 2 was visually evaluated (+++: strongly observed, ++: moderately observed, +: weakly observed, and −: no stained).

[1] = Storage stability of staining compound solution in DMSO; type: physicochemical; conditions: 10 ng/mL in DMSO, closed glass container, normal temperature, 1 month; rate of change of absorbance and fluorescence intensity
Procedure: A 10 ng/mL solution of each of the staining compounds of Labelled Examples 1 to 78 and Labelled Comparative Examples 1 and 2 in DMSO was prepared, charged into a well-closed container made of glass, and left to stand still at normal temperature for 1 month. The absorbance and the fluorescence intensity at the time of the start of a storage stability test were measured at a given wavelength, and their rates of change were examined (+++: rates of change of the absorbance and the fluorescence intensity are less than 5%, and thus, the storage stability is highly excellent; ++: rates of change of the absorbance and fluorescence intensity are 5 to 15%, and thus, the storage stability is excellent; and −: rates of change of the absorbance and fluorescence intensity are more than 15%, and thus, the storage stability is poor).

[2] = Excitation and fluorescence emission wavelength measurement; type: physicochemical; design: Stokes shift (λem − λex): unit not given here; conditions: aqueous solution: 10 mg/mL solution in DMSO diluted 500-fold with purified water
Procedure: It should be noted that the excitation wavelength and the fluorescence emission wavelength of the staining compound were determined by measuring an aqueous solution, which had been obtained by diluting 500-fold a 10 mg/mL solution of the staining compound in DMSO with purified water, with a fluorescence spectrophotometer FL 4500 manufactured by Hitachi High-Technologies Corporation.

| SMILES | Fluorescence sensitivity (Zebrafish juveniles) | Staining property (Zebrafish juveniles) | Storage stability [1] | Excitation wavelength λex [2] | Fluorescence emission wavelength λem [2] | Stokes shift (λem − λex) [2] | Site(s) to be labelled (Zebrafish juveniles) |
| --- | --- | --- | --- | --- | --- | --- | --- |
| CCN1C(=O)/C(=c2\s/c(=C/c3ccc4c(c3)C3CCCC3N4c3ccccc3)c(=O)n2CC(=O)O)SC1=S (stereo not shown) [Dye 30] | +++ | +++ | +++ (rates of change of the absorbance and the fluorescence intensity are less than 5%, and thus, the storage stability is highly excellent) | 502 nm | 644 nm | 142 | – |
| COc1ccc(N2c3ccc(/C=C/c4sc5ccccc5[n+]4CC(=O)O)cc3C3CCCC32)cc1 (stereo not shown) [Dye 31] | +++ | +++ | +++ (rates of change of the absorbance and the fluorescence intensity are less than 5%, and thus, the storage stability is highly excellent) | 560 nm | 677 nm | 117 | nose |
| COc1cc(/C=C2\C(=O)ON=C2c2ccccc2)cc2c1N(c1ccccc1)C1CCCC21 (stereo not shown) [Dye 34] | +++ | +++ | +++ (rates of change of the absorbance and the fluorescence intensity are less than 5%, and thus, the storage stability is highly excellent) | 570 nm | 657 nm | 87 | nose |
| CC1(C)C(/C=C/c2ccc3c(c2)C2CCCC2N3c2ccc(C=C(c3ccccc3)c3ccccc3)cc2)=[N+](CCC(=O)O)c2ccccc21 (stereo not shown) [Dye 35] | +++ | +++ | ++ (rates of change of the absorbance and fluorescence intensity are 5 to 15%, and thus, the storage stability is excellent) | 611 nm | 720 nm | 109 | nose |
| COc1ccc(N2c3ccc(/C=C4/SC(=S)N(CC(=O)O)C4=O)cc3C3CCCC32)cc1 (stereo not shown) [Dye 37] | +++ | +++ | ++ (rates of change of the absorbance and fluorescence intensity are 5 to 15%, and thus, the storage stability is excellent) | 571 nm | 648 nm | 77 | gallbladder |
| CCN1C(=O)/C(=c2\s/c(=C/c3ccc4c(c3)C3CCCC3N4c3ccc(OC)cc3)c(=O)n2CC(=O)O)SC1=S (stereo not shown) [Dye 38] | +++ | +++ | +++ (rates of change of the absorbance and the fluorescence intensity are less than 5%, and thus, the storage stability is highly excellent) | 582 nm | 679 nm | 97 | gastrointestinal tract |
| CCN1C(=O)/C(=c2\s/c(=C/c3ccc4c(c3)C3CCCC3N4Cc3ccccc3)c(=O)n2CC(=O)O)SC1=S (stereo not shown) [Dye 40] | +++ | +++ | +++ (rates of change of the absorbance and the fluorescence intensity are less than 5%, and thus, the storage stability is highly excellent) | 576 nm | 657 nm | 81 | blood vessel, liver, and gastrointestinal tract |
| O=C(O)C1=NN(c2ccccc2)C(=O)/C1=C\c1cc(Br)c2c(c1)C1CCCC1N2c1ccc(Br)cc1 (stereo not shown) [Dye 42] | +++ | +++ | ++ (rates of change of the absorbance and fluorescence intensity are 5 to 15%, and thus, the storage stability is excellent) | 563 nm | 618 nm | 55 | skin surface, liver, and gastrointestinal tract |
| COc1ccc2cc(N3c4ccc(/C=C5\C(=O)N(c6ccc(C(=O)O)cc6)N=C5C)cc4C4CCCC43)ccc2c1 (stereo not shown) [Dye 43] | +++ | +++ | +++ (rates of change of the absorbance and the fluorescence intensity are less than 5%, and thus, the storage stability is highly excellent) | 569 nm | 649 nm | 80 | – |
| CC1=NN(c2ccc(C(=O)O)cc2)C(=O)/C1=C\c1ccc2c(c1)C1CCCC1N2Cc1ccccc1 (stereo not shown) [Dye 44] | +++ | +++ | ++ (rates of change of the absorbance and fluorescence intensity are 5 to 15%, and thus, the storage stability is excellent) | 510 nm | 558 nm | 48 | liver and gastrointestinal tract |
| COc1ccc2cc(N3c4ccc(/C=C/c5sc6ccccc6[n+]5CC(=O)O)cc4C4CCCC43)ccc2c1 (stereo not shown) [Dye 45] | +++ | +++ | +++ (rates of change of the absorbance and the fluorescence intensity are less than 5%, and thus, the storage stability is highly excellent) | 401 nm | 516 nm | 115 | nose |
| O=C(O)C1=NN(c2ccccc2)C(=O)/C1=C\c1ccc2c(c1)C1CCCC1N2c1ccc(Cc2ccccc2)cc1 (stereo not shown) [Dye 50] | +++ | +++ | ++ (rates of change of the absorbance and fluorescence intensity are 5 to 15%, and thus, the storage stability is excellent) | 481 nm | 586 nm | 105 | – |
| O=C(O)C1=NN(c2ccccc2)C(=O)/C1=C\c1ccc2c(c1)C1CCCC1N2c1ccc(C=C(c2ccccc2)c2ccccc2)cc1 (stereo not shown) [Dye 51] | + | +++ | ++ (rates of change of the absorbance and fluorescence intensity are 5 to 15%, and thus, the storage stability is excellent) | 582 nm | 670 nm | 88 | gallbladder and gastrointestinal tract |
| COc1ccc(N2c3ccc(/C=C4\C(=O)N(c5ccc(C(=O)O)cc5)N=C4C)cc3C3CCCC32)cc1 (stereo not shown) [Dye 54] | ++ | +++ | +++ (rates of change of the absorbance and the fluorescence intensity are less than 5%, and thus, the storage stability is highly excellent) | 610 nm | 633 nm | 23 | gastrointestinal tract and nose |
| COc1ccc(N2c3ccc(/C=C(\C#N)C(=O)O)cc3C3CCCC32)cc1 (stereo not shown) [Dye 56] | +++ | +++ | +++ (rates of change of the absorbance and the fluorescence intensity are less than 5%, and thus, the storage stability is highly excellent) | 437 nm | 585 nm | 148 | liver, gallbladder, and gastrointestinal tract |
| CCN1C(=O)/C(=c2\s/c(=C/c3cc(Br)c4c(c3)C3CCCC3N4c3ccc(Br)cc3)c(=O)n2CC(=O)O)SC1=S (stereo not shown) [Dye 59] | +++ | +++ | +++ (rates of change of the absorbance and the fluorescence intensity are less than 5%, and thus, the storage stability is highly excellent) | 559 nm | 671 nm | 112 | blood vessel, nose, and gastrointestinal tract |

Source: patent publication US9801960B2, “Probe for a biological specimen and labelling method and screening method using the probe” (CANON KABUSHIKI KAISHA, priority 2008, dated 2017)
